For 24 compounds, Ki, Vd and clearance results are on record in ChEMBL document CHEMBL1137323, “Discovery of [4-Amino-2-(1-methanesulfonylpiperidin-4-ylamino)pyrimidin-5-yl](2,3-difluoro-6- methoxyphenyl)methanone (R547), a potent and selective cyclin-dependent kinase inhibitor with significant in vivo antitumor activity” (J Med Chem, 2006).

Series [1] addresses Cyclin-dependent kinase 1 (Homo sapiens, UniProt P06493).
Description: Inhibition of CDK1/Cyclin B
In series [2] the target is Cyclin-dependent kinase 4/cyclin D1 (Homo sapiens, UniProt P11802).
Description: Inhibition of CDK4/Cyclin D1
Series [3] concerns the target Cyclin-dependent kinase 2 (Homo sapiens, UniProt P24941).
Description: Inhibition of CDK2/Cyclin E
Series [4] can be described thus: in vivo. To be noted: nude, mouse, iv, 10 mg/kg.
Description: Volume of distribution in nude mouse at 10 mg/kg, iv
Series [5] in a line: in vivo. To be noted: nude, mouse, iv, 10 mg/kg. The source holds these as a separate data set.
Description: Clearance in nude mouse at 10 mg/kg, iv

Cyclin-dependent kinase 4/cyclin D1, sequence (P11802 whole entry): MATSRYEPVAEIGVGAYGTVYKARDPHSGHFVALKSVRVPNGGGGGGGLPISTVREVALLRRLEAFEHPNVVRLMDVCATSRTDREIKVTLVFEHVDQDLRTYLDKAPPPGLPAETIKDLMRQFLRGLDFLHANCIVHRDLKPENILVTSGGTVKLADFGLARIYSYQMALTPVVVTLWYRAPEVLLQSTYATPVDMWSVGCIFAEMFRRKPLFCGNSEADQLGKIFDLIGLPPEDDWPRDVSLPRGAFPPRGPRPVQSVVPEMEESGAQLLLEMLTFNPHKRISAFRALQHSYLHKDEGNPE
Cyclin-dependent kinase 4/cyclin D1, sequence (P24385 whole entry, further chain): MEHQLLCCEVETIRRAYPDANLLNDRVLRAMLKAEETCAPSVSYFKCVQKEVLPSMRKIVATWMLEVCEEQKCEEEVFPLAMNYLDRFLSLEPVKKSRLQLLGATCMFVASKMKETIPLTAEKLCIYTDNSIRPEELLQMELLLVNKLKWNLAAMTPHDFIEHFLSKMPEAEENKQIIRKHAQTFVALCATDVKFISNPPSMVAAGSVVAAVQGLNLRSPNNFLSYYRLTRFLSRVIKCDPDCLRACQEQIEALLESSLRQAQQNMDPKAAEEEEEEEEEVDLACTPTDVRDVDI
Cyclin-dependent kinase 1, sequence (P06493 whole entry): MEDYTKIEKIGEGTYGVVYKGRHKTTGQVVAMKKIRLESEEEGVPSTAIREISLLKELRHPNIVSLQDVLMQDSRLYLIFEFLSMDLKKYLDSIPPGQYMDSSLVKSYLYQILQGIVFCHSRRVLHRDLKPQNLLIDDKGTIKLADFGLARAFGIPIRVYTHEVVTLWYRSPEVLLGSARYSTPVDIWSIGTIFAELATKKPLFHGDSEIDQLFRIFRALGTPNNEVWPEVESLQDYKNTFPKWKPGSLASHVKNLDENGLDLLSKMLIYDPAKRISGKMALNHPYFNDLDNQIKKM

With `COc1cc(F)c(F)c(F)c1C(=O)c1cnc(NC2CCN(S(C)(=O)=O)CC2)nc1N`, the Ki (commonly the equilibrium dissociation constant of an inhibitor or competing ligand from its target) in series [1] came out at 5 nM; in series [2], 1 nM; in series [3] it was 2 nM.
The corresponding values for `CCOC(=O)N1CCC(Nc2ncc(C(=O)c3ccccc3F)c(N)n2)CC1` are 1640 nM, 734 nM and 3140 nM.
The corresponding values for `COc1c(C(=O)c2cnc(NC3CCN(S(C)(=O)=O)CC3)nc2N)cc(F)c(F)c1F` are 1670 nM, 267 nM and 495 nM.
The corresponding values for `CCOC(=O)N1CCC(Nc2ncc(C(=O)c3ccccc3C)c(N)n2)CC1` are 1110 nM, 665 nM and 2170 nM.
For `CN1CCN(c2ccc(Nc3ncc(C(=O)c4cccc(F)c4)c(N)n3)cc2)CC1`, the Ki in series [1] was more than 10000 nM; in series [2], 450 nM; in series [3], more than 10000 nM.
With `COc1ccccc1C(=O)c1cnc(NC2CCN(C)CC2)nc1N`, the Ki was 6620 nM in series [1], more than 1000 nM in series [2] and more than 10000 nM in series [3].
The matching figures for `CN1CCN(c2ccc(Nc3ncc(C(=O)c4cccc(C(F)(F)F)c4)c(N)n3)cc2)CC1`: more than 10000 nM, more than 1000 nM and more than 10000 nM.
The corresponding values for `COc1cc(F)c(F)cc1C(=O)c1cnc(NC2CCN(S(C)(=O)=O)CC2)nc1N` are 14 nM, 6 nM and 6 nM.
The matching figures for `CCOc1ccccc1C(=O)c1cnc(NC2CCN(C(C)=O)CC2)nc1N`: 2500 nM, 986 nM and 2030 nM.
Take `CCOC(=O)N1CCC(Nc2ncc(C(=O)c3ccccc3OC)c(N)n2)CC1`: the results for the Ki in series [1], in series [2] and in series [3] were 246 nM, 110 nM and 597 nM, respectively.
With `COc1ccccc1C(=O)c1cnc(NC2CCN(C(C)=O)CC2)nc1N`, the results for the Ki in series [1], in series [2] and in series [3] were 181 nM, 66 nM and 327 nM, respectively.
The matching figures for `CS(=O)(=O)N1CCC(Nc2ncc(C(=O)c3c(F)cccc3F)c(N)n2)CC1`: 38 nM, 17 nM and 15 nM.
As for `COc1ccc(F)cc1C(=O)c1cnc(NC2CCN(S(C)(=O)=O)CC2)nc1N`, the Ki was found to be 14 nM in series [1], 7 nM in series [2] and 7 nM in series [3]. The distribution volume (Vd) (as a rule, a proportionality between amount in the body and measured concentration, not a real space) in the series “in vivo [4]” is 0.885 L/kg. In addition, in the series “in vivo [5]”, the clearance (as a rule, the volume of plasma or blood freed of the substance per unit of time) was 48.3 mL/min/kg.
With `COc1cc(F)ccc1C(=O)c1cnc(NC2CCN(S(C)(=O)=O)CC2)nc1N`, the Ki in series [1] came out at 193 nM; in series [2], 21 nM; in series [3], 84 nM.
The corresponding values for `COc1ccccc1C(=O)c1cnc(Nc2ccc(N3CCN(C)CC3)cc2)nc1N` are 1260 nM, 159 nM and 5140 nM.
The corresponding values for `CCCC(=O)N1CCC(Nc2ncc(C(=O)c3ccccc3OC)c(N)n2)CC1` are 278 nM, 98 nM and 886 nM.
The matching figures for `CN1CCN(c2ccc(Nc3ncc(C(=O)c4ccccc4C(F)(F)F)c(N)n3)cc2)CC1`: more than 10000 nM, 821 nM and more than 10000 nM.
Turning to `CCS(=O)(=O)N1CCC(Nc2ncc(C(=O)c3ccccc3OC)c(N)n2)CC1`, the Ki in series [1] was 43 nM; in series [2], 16 nM; in series [3], 51 nM.
The corresponding values for `COc1ccc(Cl)cc1C(=O)c1cnc(NC2CCN(S(C)(=O)=O)CC2)nc1N` are 133 nM, 36 nM and 451 nM.
The corresponding values for `COc1cccc(F)c1C(=O)c1cnc(NC2CCN(S(C)(=O)=O)CC2)nc1N` are 17 nM, 3 nM and 13 nM.
The corresponding values for `CCNC(=O)N1CCC(Nc2ncc(C(=O)c3ccccc3OC)c(N)n2)CC1` are 1530 nM, 409 nM and 1760 nM.
For `COc1ccccc1C(=O)c1cnc(NC2CCNCC2)nc1N`, the Ki in series [1] stood at 5840 nM; in series [2], 481 nM; in series [3] it was 6270 nM.
The corresponding values for `COc1cccc(C(=O)c2cnc(Nc3ccc(N4CCN(C)CC4)cc3)nc2N)c1` are more than 10000 nM, more than 1000 nM and more than 10000 nM.
The corresponding values for `Cc1ccccc1C(=O)c1cnc(Nc2ccc(N3CCN(C)CC3)cc2)nc1N` are more than 10000 nM, 584 nM and more than 10000 nM.
